Experiments:
[1] = cited from earlier work
[2] = Solubility of phytosphingosine in solvents; assay type: physicochemical; conditions: solvent: mixture of water, lactic acid and a willow bark extract

## CCCCCCCCCCCCCC[C@@H](O)[C@@H](O)[C@@H](N)CO [Phytosphingosine, phytosphingosine]
[1]; isocetyl alcohol
  Solubility in isocetyl alcohol: 1 wt %
[1]; water
  Solubility in water: not soluble in water at all
[2]
  Amount solubilized to give a completely clear solution: 5-10 weight %
